Like-named read-outs stand apart in the source and are kept apart here.
Legend:
[1] = test system: HIV-1 (IIIB); test: microbe, parasite or virus in culture; details: Human immunodeficiency virus 1, IIIB, CCRF-CEM, read-out: EC50 against HIV-1(IIIB), CEM cell cultures, Table 2
[2] = test system: HIV-1 (IIIB)
[3] = test system: HIV-1 (IIIB); test: microbe, parasite or virus in culture; details: read-out: EC50 (MT-4) HIV-1 (IIIB); Table 19
Description: (§1) MT-4, C8166 or CEM cells (4 to 5×10^5 cells per ml) were suspended in fresh culture medium (RPMI-1640 medium supplemented with 10% fetal bovine serum (FBS) (BioWittaker Europe, Verviers, Belgium), 2 mM L-glutamine and […] NaHCO3). Subsequently, the cells were infected with HIV-1 (IIIB) or HIV-2(ROD) at ˜100 CCID50 (1 CCID50 being the dose infective for 50% of the cell cultures) per ml of cell suspension. Then, 100 μl of the infected cell suspension were transferred to 96-well microplate wells, mixed with 100 μl of the appropriate (5-fold) dilutions of the test compounds and further incubated at 37° C. After 4 to 5 days, giant cell formation was recorded microscopically in the CEM and C8166 cell cultures. The MT-4 cell cultures were treated with trypan blue and the number of viable cells was determined.

[4] = test system: HIV-2(ROD); test: microbe, parasite or virus in culture; details: read-out: EC50 (MT-4) HIV-2 (ROD); Table 19
Description: as §1

SMILES	EC50 [1] [µM]	other results
NCC(O)CN [1,3-diamino-2-hydroxypropane]	> 1000	
NCC(=O)CN [1,3-diaminoaceton]	> 1000	
NCCN [Ethylene diamine]	> 1000	
CC(C)(C)OC(=O)NC(=O)C(N)OCc1ccccc1 (stereo not drawn) [Example 20, α-benzyloxy-N-tert-butoxycarbonylglycinamide]		melting point: 115 to 120 °C
COC(N)C(=O)NC(=O)OCc1ccccc1 (stereo not drawn) [Example 22, α-methoxy-N-benzyloxycarbonylglycinamide]		melting point: 110 to 112 °C
CCOC(=O)C(NC(=O)OCc1ccccc1)OCC (stereo not drawn) [Example 23, α-ethoxy-N-benzyloxycarbonylglycine ethyl ester]		melting point: 66 to 68 °C
CCOC(N)C(=O)NC(=O)OCc1ccccc1 (stereo not drawn) [Example 25, α-ethoxy-N-benzyloxycarbonylglycinamide]		melting point: 119 to 121 °C
CC(C)OC(N)C(=O)NC(=O)OCc1ccccc1 (stereo not drawn) [Example 26, α-isopropoxy-N-benzyloxycarbonylglycinamide]		melting point: 111 to 113 °C
NCC(N)=S [Glycin-thioamide, reference compound]		EC50 ([2]; read-out: EC50 against HIV-1(IIIB), CEM cell cultures, Table 2): > 500 µM
CNC(=O)CN [Glycine methylamide]	> 500	
NCC(=O)O [Glycine]	> 500	
NC(=O)CO [Glycolamide, Glycolamide (HO—CH2—CO—NH2), reference compound]		EC50 [3]: > 500 µM; EC50 [4]: > 500 µM; EC50 ([2]; read-out: EC50 (CEM) HIV-1 (IIIB), Table 19): > 500 µM
C[C@H](N)C(N)=O [L-Alaninamide]	> 500	

Continued, in another order:

EC50 [1] [µM]	SMILES	other results
> 1000	NCC(N)C(=O)O (racemic) [DL-2,3-diaminopropionic acid]	
> 500	CC(C)CC(N)C(N)=O (racemic) [DL-Leucinamide]	
> 1000	NC(=O)C(N)Cc1ccccc1 (racemic) [DL-Phenylalaninamide]	
> 500	NC(=O)C(N)Cc1c[nH]c2ccccc12 (racemic) [DL-Tryptophanamide]	
> 500	NC(=O)C[C@@H](N)C(=O)O [D-Asparagine]	
> 1000	CC(C)C[C@@H](N)C(=O)O [D-Leucine]	
> 500	C[C@H](N)C(=O)O [L-Alanine]	
